From patent US6861432B2, “Piperazine derivatives that destabilize androgen receptors” (Schering Aktiengesellschaft, priority 2001, dated 2005) come the findings set out here.

For this test, the target named is T1, androgen receptor (Homo sapiens, UniProt P10275, T878A).
T1 construct: 2*10^6 LNCaP cells in 6 ml of RPMI 1640 without phenol red are grown; endogenous in cells; host or cells: LNCaP (human prostate cell line)
T1 sequence (P10275 1-920 T878A): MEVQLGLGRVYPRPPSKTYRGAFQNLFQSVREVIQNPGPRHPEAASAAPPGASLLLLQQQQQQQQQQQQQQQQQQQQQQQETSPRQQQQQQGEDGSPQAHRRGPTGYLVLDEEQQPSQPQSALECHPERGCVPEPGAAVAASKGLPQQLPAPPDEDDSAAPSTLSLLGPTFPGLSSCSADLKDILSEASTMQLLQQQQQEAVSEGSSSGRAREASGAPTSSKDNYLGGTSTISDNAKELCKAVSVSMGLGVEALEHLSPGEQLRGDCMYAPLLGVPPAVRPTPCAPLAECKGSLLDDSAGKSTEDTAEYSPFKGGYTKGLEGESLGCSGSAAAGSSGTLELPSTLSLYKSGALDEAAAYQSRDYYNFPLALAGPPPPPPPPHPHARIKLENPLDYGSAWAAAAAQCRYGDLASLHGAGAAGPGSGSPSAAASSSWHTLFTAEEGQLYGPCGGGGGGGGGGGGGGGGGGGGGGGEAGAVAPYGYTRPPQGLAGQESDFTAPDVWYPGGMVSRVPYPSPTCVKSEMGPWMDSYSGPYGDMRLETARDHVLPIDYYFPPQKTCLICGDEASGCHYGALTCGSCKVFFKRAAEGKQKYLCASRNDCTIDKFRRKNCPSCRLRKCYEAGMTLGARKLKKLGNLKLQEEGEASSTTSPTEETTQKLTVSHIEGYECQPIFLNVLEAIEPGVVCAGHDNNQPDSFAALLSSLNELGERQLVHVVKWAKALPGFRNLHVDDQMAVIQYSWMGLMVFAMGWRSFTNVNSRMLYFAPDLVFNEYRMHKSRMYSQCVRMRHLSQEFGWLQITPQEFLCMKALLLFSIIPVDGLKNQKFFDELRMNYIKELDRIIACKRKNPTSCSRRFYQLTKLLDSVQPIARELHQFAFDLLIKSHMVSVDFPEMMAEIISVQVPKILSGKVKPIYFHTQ
The experiment in a line: cell-based. Particulars: for remaining activity at 10 µM / remaining activity at 1 µM: LNCaP, 48 h; for remaining activity at 10 µM: read-out: AR Content [%] At 10 μM; for remaining activity at 1 µM: read-out: AR Content [%] At 1 μM; for AR Content [%]: LNCaP cells, R-1881 at 10 nM, percentage of DMSO control.

In the case of `CC1=C(CCCCCCN2CCN(C(=O)Nc3ccc(F)cc3)CC2)C(=O)N(c2ccc(C#N)c(C(F)(F)F)c2)C1=O` [Example 330, 4-[6-[1-[4-Cyano-3-(trifluoromethyl)phenyl]-2,5-dihydro-4-methyl-2,5-dioxo-1H-pyrrol-3-yl]hexyl]-N-(4-fluorophenyl)-piperazine-1-carboxamide], the remaining activity at 10 µM worked out at 46%.

For `CC1=C(CCCCCCN2CCN(C(=O)Nc3c(F)cccc3F)CC2)C(=O)N(c2ccc(C#N)c(C(F)(F)F)c2)C1=O` [Example 350, 4-[6-[1-[4-Cyano-3-(trifluoromethyl)phenyl]-2,5-dihydro-4-methyl-2,5-dioxo-1H-pyrrol-3-yl]hexyl]-N-(2,6-difluorophenyl)piperazine-1-carboxamide], the remaining activity at 10 µM worked out at 61%.

As for `CC1=C(CCCCCCN2CCN(C(=O)COc3ccc(Cl)cc3)CC2)C(=O)N(c2ccc(C#N)c(C(F)(F)F)c2)C1=O` [Example 264, 4-[3-[6-[4-[(4-Chlorophenoxy)acetyl]piperazin-1-yl]hexyl]-2,5-dihydro-4-methyl-2,5-dioxo-1H-pyrrol-1-yl]-2-(trifluoromethyl)benzonitrile], the remaining activity at 10 µM stood at 37%.

`CC1=C(CCCCCCN2CCN(C(=O)c3ccc(C#N)cc3)CC2)C(=O)N(c2ccc(C#N)c(C(F)(F)F)c2)C1=O` [Example 268, 4-[3-[6-[4-(4-Cyanobenzoyl)piperazin-1-yl]hexyl]-2,5-dihydro-4-methyl-2,5-dioxo-1H-pyrrol-1-yl]-2-(trifluoromethyl)benzonitrile]: the remaining activity at 10 µM was 73%.

As to `CC1=C(CCCCCCN2CCN(S(=O)(=O)c3ccc(C)cc3)CC2)C(=O)N(c2ccc(C#N)c(C(F)(F)F)c2)C1=O` [Example 297, 4-[2,5-Dihydro-3-methyl-4-[6-[4-[(4-methylphenyl)sulfonyl]piperazin-1-yl]hexyl]-2,5-dioxo-1H-pyrrol-1-yl]-2-(trifluoromethyl)benzonitrile], the remaining activity at 10 µM turned out to be 59%.

For `CC1=C(CCCCCCN2CCN(C(=O)NC(C)C)CC2)C(=O)N(c2ccc(C#N)c(C(F)(F)F)c2)C1=O` [Example 319, 4-[6-[1-[4-Cyano-3-(trifluoromethyl)phenyl]-2,5-dihydro-4-methyl-2,5-dioxo-1H-pyrrol-3-yl]hexyl]-N-(1-methylethyl)-piperazine-1-carboxamide], the remaining activity at 10 µM turned out to be 74%.

As for `CC1=C(CCCCCCN2CCN(C(=O)Nc3cccc(F)c3)CC2)C(=O)N(c2ccc(C#N)c(C(F)(F)F)c2)C1=O` [Example 326, 4-[6-[1-[4-Cyano-3-(trifluoromethyl)phenyl]-2,5-dihydro-4-methyl-2,5-dioxo-1H-pyrrol-3-yl]hexyl]-N-(3-fluorophenyl)-piperazine-1-carboxamide], the remaining activity at 10 µM was determined as 45%.

Consider `CC1=C(CCCCCN2CCN(S(=O)(=O)c3cccc4nsnc34)CC2)C(=O)N(c2ccc(C#N)c(C(F)(F)F)c2)C1=O` [Example 207, 4-[3-[5-[4-[(2,1,3-Benzothiadiazol-4-yl)sulfonyl]piperazin-1-yl]pentyl]-2,5-dihydro-4-methyl-2,5-dioxo-1H-pyrrol-1-yl]-2-(trifluoromethyl)benzonitrile], for which the remaining activity at 10 µM came out at 42%.

As to `CC1=C(CCCCCCN2CCN(C(=O)CC(C)C)CC2)C(=O)N(c2ccc(C#N)c(C(F)(F)F)c2)C1=O` [Example 270, 4-[2,5-Dihydro-3-methyl-4-[6-[4-(3-methyl-1-oxobutyl)piperazin-1-yl]hexyl]-2,5-dioxo-1H-pyrrol-1-yl]-2-(trifluoromethyl)benzonitrile], the remaining activity at 10 µM was found to be 65%.

In the case of `CC1=C(CCCCN2CCN(C(=O)C3CCC3)CC2)C(=O)N(c2ccc(C#N)c(C(F)(F)F)c2)C1=O` [Example 93, 4-[3-[4-[4-(Cyclobutylcarbonyl)piperazin-1-yl]butyl]-2,5-dihydro-4-methyl-2,5-dioxo-1H-pyrrol-1-yl]-2-(trifluoromethyl)benzonitrile], the remaining activity at 10 µM amounted to 53%.

Take `CC1=C(CCCCN2CCN(S(=O)(=O)c3ccc(C#N)cc3)CC2)C(=O)N(c2ccc(C#N)c(C(F)(F)F)c2)C1=O` [Example 121, 4-[3-[4-[4-[(4-Cyanophenyl)sulfonyl]piperazin-1-yl]butyl]-2,5-dihydro-4-methyl-2,5-dioxo-1H-pyrrol-1-yl]-2-(trifluoromethyl)benzonitrile]: the remaining activity at 10 µM worked out at 53%.

For `CSc1cccc(NC(=O)N2CCN(CCCCCCC3=C(C)C(=O)N(c4ccc(C#N)c(C(F)(F)F)c4)C3=O)CC2)c1` [Example 340, 4-[6-[1-[4-Cyano-3-(trifluoromethyl)phenyl]-2,5-dihydro-4-methyl-2,5-dioxo-1H-pyrrol-3-yl]hexyl]-N-[3-(methylsulfanyl)phenyl]piperazine-1-carboxamide], the remaining activity at 10 µM was found to be 41%.

Take `CC(C)C(=O)N1CCN(CCCCCCN2C(=S)N(c3ccc(C#N)c(C(F)(F)F)c3)C(=O)C2(C)C)CC1` [Example 653, 4-[4,4-Dimethyl-3-[6-[4-(2-methyl-1-oxopropyl)piperazin-1-yl]hexyl]-5-oxo-2-thioxoimidazolidin-1-yl]-2-(trifluoromethyl)benzonitrile]: the remaining activity at 1 µM was determined as 71%.

`CC1(C)C(=O)N(c2ccc(C#N)c(C(F)(F)F)c2)C(=S)N1CCCCCN1CCN(S(=O)(=O)c2ccc(C#N)cc2)CC1` [Example 632, 4-[3-[5-[4-[(4-Cyanophenyl)sulfonyl]piperazin-1-yl]pentyl]-4,4-dimethyl-5-oxo-2-thioxoimidazolidin-1-yl]-2-(trifluoromethyl)benzonitrile]: the remaining activity at 1 µM turned out to be 75%.

As to `C[C@]1(O)CC[C@H]2[C@@H]3CCC4=CC(=O)CCC4=C3C=C[C@@]21C` [Example R-1881, 17β-hydroxy-17α-methylestra-4,9,11-trien-3-one, reference compound], the “AR Content [%]” value is reported as 250%. Moreover, the “AR Content [%]” value (listed as R1881) is recorded as “stabilizes the AR protein”.

In the case of `CC1=C(CCCCCCN2CCN(C(=O)Nc3cc(Cl)nc(Cl)c3)CC2)C(=O)N(c2ccc(C#N)c(C(F)(F)F)c2)C1=O` [Example 365, 4-[6-[1-[4-Cyano-3-(trifluoromethyl)phenyl]-2,5-dihydro-4-methyl-2,5-dioxo-1H-pyrrol-3-yl]hexyl]-N-(2,6-dichloropyridin-4-yl)piperazine-1-carboxamide], the remaining activity at 1 µM stood at 82% and the remaining activity at 10 µM was 36%.

As to `CC1=C(CCCCN2CCN(C(=O)c3ccc(N(C)C)cc3)CC2)C(=O)N(c2ccc(C#N)c(C(F)(F)F)c2)C1=O` [Example 96, 4-[3-[4-[4-[4-(Dimethylamino)benzoyl]piperazin-1-yl]butyl]-2,5-dihydro-4-methyl-2,5-dioxo-1H-pyrrol-1-yl]-2-(trifluoromethyl)benzonitrile], the remaining activity at 10 µM turned out to be 50%.

`CC1=C(CCCCCCN2CCN(S(C)(=O)=O)CC2)C(=O)N(c2ccc(C#N)c(C(F)(F)F)c2)C1=O` [Example 296, 4-[2,5-Dihydro-3-methyl-4-[6-[4-(methylsulfonyl)piperazin-1-yl]hexyl]-2,5-dioxo-1H-pyrrol-1-yl]-2-(trifluoromethyl)benzonitrile]: the remaining activity at 10 µM amounted to 48%.

Take `CC1=C(CCCCCCN2CCN(C(=O)Nc3ccccc3C(F)(F)F)CC2)C(=O)N(c2ccc(C#N)c(C(F)(F)F)c2)C1=O` [Example 324, 4-[6-[1-[4-Cyano-3-(trifluoromethyl)phenyl]-2,5-dihydro-4-methyl-2,5-dioxo-1H-pyrrol-3-yl]hexyl]-N-[2-(trifluoromethyl)phenyl]piperazine-1-carboxamide]: the remaining activity at 10 µM amounted to 62%.

For the compound `CC(CN1C(=S)N(c2ccc(C#N)c(C(F)(F)F)c2)C(=O)C1(C)C)N1CCN(C(=O)c2cccs2)CC1` (centres unmarked) [Example 524, 4-[4,4-Dimethyl-5-oxo-3-[2-[4-[(thien-2-yl)carbonyl]-piperazin-1-yl]propyl]-2-thioxoimidazolidin-1-yl]-2-(trifluoromethyl)benzonitrile], the remaining activity at 1 µM stood at 61%.

For `CC1=C(CCCCN2CCN(C(=O)c3cccs3)CC2)C(=O)N(c2ccc(C#N)c(C(F)(F)F)c2)C1=O` [Example 99, 4-[2,5-Dihydro-3-methyl-2,5-dioxo-4-[4-[4-[(thien-2-yl)-carbonyl]piperazin-1-yl]butyl]-1H-pyrrol-1-yl]-2-(trifluoromethyl)benzonitrile], the remaining activity at 10 µM turned out to be 66%.
